PubChem BioAssay (NCI)
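1) Cells in 96-well plates. 2) Compound, 48 h, 5 concentrations. 3) Linear interpolation between surrounding doses. 4) Unreached endpoint = highest concentration. TGI is the concentration that stops growth completely.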

These compounds were tested on A498 renal (assay: NCI-60 cell line screen, 48 h).

SMILES	TGI [µM]
CCN(CC)c1ccc2cc(-c3nnc(-c4ccccc4)o3)c(=O)oc2c1	> 100
CC1=C(C(N)=O)C(c2ccncc2)C(C#N)=C2SCC(=O)N12 (stereo not drawn)	> 100
CC(=O)c1sc2c(c1OC(=O)c1cccs1)c(=O)n(-c1ccccc1)c(=S)n2-c1ccccc1	15.9
C[C@]12CCC(=O)C=C1CC[C@@H]1C2CC[C@]2(C)c3nn(-c4ccc(F)cc4)nc3CC12 (stereo partly drawn)	> 100
CN(C)C(=O)NCCN1CCCCCc2ccccc21	> 100
CN(Nc1cc(=O)[nH]c(=O)[nH]1)c1ccccc1	> 100
CC(=O)Oc1ccccc1-c1cc2ccccc2oc1=O	> 100
Clc1ccc(Cl)c(Nc2ccnc(SCc3ccccc3)n2)c1	> 100
CCOC(=O)C1=C(Nc2cccc(OC)c2)OCC1=O	> 100
O=C(NCCCNC(=O)c1ccc2c(O)c(O)ccc2c1)c1ccc2c(O)c(O)ccc2c1	98
O=C1/C(=C\c2ccc([N+](=O)[O-])o2)SC2N=C(COc3ccc(Cl)cc3)NN12 (stereo not drawn)	44.3
CO[C@H]1[C@@H](O)[C@@H](C)O[C@@H](O[C@H]2CC[C@@]3(C)[C@H](CC[C@@H]4[C@@H]3CC[C@]3(C)[C@@H](C5=CC(=O)OC5)[C@@H](OC(C)=O)C[C@]43O)C2)[C@@H]1O	1.27
Cn1ccc(C(=O)NCCOCCNC(=O)c2ccn(C)c(=O)c2O)c(O)c1=O	> 100
CC1=C(Br)C(Br)=C(C)S1=O	96.5
N#CSc1nc[nH]c1C(N)=O	> 100
COc1ccnc2c1C(=O)c1nc3ccccc3c3ccnc-2c13	0.0803
CC(=O)N(C(=O)CC(=O)N/N=C\c1ccc(Br)c(N(CCC#N)CCC#N)c1)c1ccc(Cl)cc1	> 100

SMILES	TGI [µM]
C[C@H]1[C@H](C)CC[C@]2(C)CC[C@]3(C)C(=C[C@@H](O)[C@@H]4[C@@]5(C)[C@H](O)[C@@H](O)[C@H](O)C(C)(C)[C@@H]5CC[C@]43C)[C@H]12	> 100
C=CCN1C[C@H](C)N([C@H](c2ccc(C(=O)N(CC)CCO)cc2)c2cccc(OC)c2)C[C@H]1C	> 100
CCC1c2[nH]c3ccccc3c2C[C@H]2C(=O)NC(COC(C)(C)C)C(=O)N12 (stereo partly drawn)	> 100
CCOC(=O)CC1CCN(C(=O)c2ccccc2)C2Cc3c([nH]c4ccccc34)C12C[N+](=O)[O-] (stereo not drawn)	> 100
CC12CCC(C(=O)OC1=O)C2(C)C (stereo not drawn)	> 100
CN1CCOC1(C)CO (stereo not drawn)	> 100
CC1=CC(C2/C(=N/O)C=C(C)CC2(C)C)C(O)C(C)(C)C1 (stereo not drawn)	33.3
c1cc(-c2ncc(-c3ccc4c(c3)CCCO4)o2)ccn1	59.6
CC(=O)OC1CC2c3cccc4c3C(CC2N(C)C1=O)CN4C(=O)c1ccccc1 (stereo not drawn)	74.6
COc1ccc2c3c1O[C@H]1C(O)CCC4(O)[C@@H](C2)NCC[C@]314 (stereo partly drawn)	> 100
Cc1cc(C)cc(C(=N)c2ccccc2Cc2cccc3ccccc23)c1	87.3
CCCCCC(C[N+]1(C)CCOCC1)C(=O)/C=C/c1ccccc1 (stereo not drawn)	31.7
CC1(C#N)CC(C)(C)C(/C=C2/CC(C)(C)C(/C=C3/OC(=N)CC3(C)C)=N2)=N1 (stereo not drawn)	37.8
COc1ccc(C[N+]23C(CC[C@H]2c2ccccc2)CC[C@H]3c2ccccc2)cc1 (stereo partly drawn)	> 100
CCOC(=O)CC1c2ccc(O)cc2OC(=O)C1c1ccc([N+](=O)[O-])cc1 (stereo not drawn)	89.1
CCOC(=O)C1(C(=O)OCC)CN(CC)CN(c2ccccc2)C1	> 100

What follows are compounds tested on ACHN renal (assay: NCI-60 cell line screen, 48 h).

SMILES	TGI [µM]
CSC1=C(SC)SC(=C2SC3=C(SC(=C4SCCS4)S3)S2)S1	> 100
CCN(CC)c1ccc2cc(-c3nnc(-c4ccccc4)o3)c(=O)oc2c1	> 100
CC1=C(C(N)=O)C(c2ccncc2)C(C#N)=C2SCC(=O)N12 (stereo not drawn)	> 100
CC(=O)c1sc2c(c1OC(=O)c1cccs1)c(=O)n(-c1ccccc1)c(=S)n2-c1ccccc1	11.1
C[C@]12CCC(=O)C=C1CC[C@@H]1C2CC[C@]2(C)c3nn(-c4ccc(F)cc4)nc3CC12 (stereo partly drawn)	> 100
CN(C)C(=O)NCCN1CCCCCc2ccccc21	> 100
CN(Nc1cc(=O)[nH]c(=O)[nH]1)c1ccccc1	> 100
CC(=O)Oc1ccccc1-c1cc2ccccc2oc1=O	> 100
Clc1ccc(Cl)c(Nc2ccnc(SCc3ccccc3)n2)c1	> 100
CCOC(=O)C1=C(Nc2cccc(OC)c2)OCC1=O	> 100
O=C(NCCCNC(=O)c1ccc2c(O)c(O)ccc2c1)c1ccc2c(O)c(O)ccc2c1	55.9
O=C1/C(=C\c2ccc([N+](=O)[O-])o2)SC2N=C(COc3ccc(Cl)cc3)NN12 (stereo not drawn)	3.67
CO[C@H]1[C@@H](O)[C@@H](C)O[C@@H](O[C@H]2CC[C@@]3(C)[C@H](CC[C@@H]4[C@@H]3CC[C@]3(C)[C@@H](C5=CC(=O)OC5)[C@@H](OC(C)=O)C[C@]43O)C2)[C@@H]1O	0.0575
O=C(C(=O)N1CCc2ccccc21)c1c[nH]c2ccccc12	> 10
Cn1ccc(C(=O)NCCOCCNC(=O)c2ccn(C)c(=O)c2O)c(O)c1=O	> 100
CC1=C(Br)C(Br)=C(C)S1=O	90.9
N#CSc1nc[nH]c1C(N)=O	> 100
COc1ccnc2c1C(=O)c1nc3ccccc3c3ccnc-2c13	0.41
CC(=O)N(C(=O)CC(=O)N/N=C\c1ccc(Br)c(N(CCC#N)CCC#N)c1)c1ccc(Cl)cc1	> 100
C[C@H]1[C@H](C)CC[C@]2(C)CC[C@]3(C)C(=C[C@@H](O)[C@@H]4[C@@]5(C)[C@H](O)[C@@H](O)[C@H](O)C(C)(C)[C@@H]5CC[C@]43C)[C@H]12	> 100
